*1 amine or outer side, *2 acyl side, *3 side chain or, on linkers, in order; H or OH if unused. Where a SMILES comes first, the peptide text is derived from it. Side-chain parts run from the residue outwards. γGlu = O=C(O)[C@H](CCC(=O)[*:2])N[*:1]

In this experiment the target is T1, glucagon receptor (Homo sapiens, UniProt P47871).
T1 construct: expressed in transfected cells
Briefly: Assay (I) Glucagon activity (cAMP biosensor, FLIPR). In kind it is cell-based. The settings on record: HEK-293 cells with cloned glucagon receptor and cAMP biosensor; end point after 6 minutes. In short, it runs like this:
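HEK-293 cells expressing glucagon receptor with membrane cAMP biosensor (ACTOne), calcium-dye loaded with probenecid and a PDE inhibitor.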

T1 sequence (P47871 26-477): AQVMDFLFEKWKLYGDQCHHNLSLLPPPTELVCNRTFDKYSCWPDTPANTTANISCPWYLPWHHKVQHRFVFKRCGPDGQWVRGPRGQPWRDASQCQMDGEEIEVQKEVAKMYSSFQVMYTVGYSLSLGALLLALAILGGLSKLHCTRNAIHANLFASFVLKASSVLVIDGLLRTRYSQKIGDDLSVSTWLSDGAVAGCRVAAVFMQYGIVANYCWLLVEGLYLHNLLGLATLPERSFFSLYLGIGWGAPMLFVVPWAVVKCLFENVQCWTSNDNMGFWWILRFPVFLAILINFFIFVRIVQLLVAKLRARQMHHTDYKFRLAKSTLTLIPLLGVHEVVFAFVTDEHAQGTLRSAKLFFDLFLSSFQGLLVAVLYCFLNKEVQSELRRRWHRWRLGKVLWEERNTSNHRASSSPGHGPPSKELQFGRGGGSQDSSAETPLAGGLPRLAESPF

In general, EC50 refers to the concentration that produces a half-maximal response. Low values mean an effect from little substance, high ones a need for much substance. For the molecule `CC(=O)N[C@@H](CCC(=O)N[C@@H](CCC(=O)N[C@@H](CCC(=O)N[C@@H](CCC(=O)NCCCC[C@H](NC(=O)[C@@H](NC(=O)[C@H](Cc1ccccc1)NC(=O)[C@H](CC(=O)O)NC(=O)[C@H](CCC(N)=O)NC(=O)[C@H](C)NC(=O)[C@H](CCCNC(=N)N)NC(=O)[C@H](CCCNC(=N)N)NC(=O)[C@H](CC(C)C)NC(=O)[C@H](CC(=O)O)NC(=O)[C@H](CC(C)C)NC(=O)[C@H](Cc1ccc(O)cc1)NC(=O)[C@H](CCCCN)NC(=O)[C@H](CO)NC(=O)[C@H](Cc1ccc(O)cc1)NC(=O)[C@H](CC(=O)O)NC(=O)[C@H](CO)NC(=O)[C@@H](NC(=O)[C@H](Cc1ccccc1)NC(=O)[C@@H](NC(=O)CNC(=O)[C@H](CCC(N)=O)NC(=O)CNC(=O)[C@@H](N)Cc1c[nH]cn1)[C@@H](C)O)[C@@H](C)O)C(C)C)C(=O)N[C@@H](Cc1c[nH]c2ccccc12)C(=O)N[C@@H](CC(C)C)C(=O)N[C@@H](CC(C)C)C(=O)N[C@@H](CO)C(=O)N[C@H](C(=O)O)[C@@H](C)O)C(=O)O)C(=O)O)C(=O)O)C(=O)O` [Example 55, N^ε24-[(4S)-4-[[(4S)-4-[[(4S)-4-[[(4S)-4-acetamido-4-carboxybutanoyl]amino]-4-carboxybutanoyl]amino]-4-carboxybutanoyl]amino]-4-carboxybutanoyl]-[Gly^2,Leu^16,Lys^24,Leu^27,Ser^28]-Glucagon] (H-HGQGTFTSDYSKYLDLRRAQDFVK([γGlu-γGlu-γGlu-γGlu-Ac])WLLST-OH), a half-maximal response (EC50) required 51 pM.
Next, `CC(=O)N[C@@H](CCC(=O)N[C@@H](CCC(=O)N[C@@H](CCC(=O)N[C@@H](CCC(=O)NCCCC[C@H](NC(=O)[C@@H](NC(=O)[C@H](Cc1ccccc1)NC(=O)[C@H](CC(=O)O)NC(=O)[C@H](CCC(N)=O)NC(=O)[C@H](C)NC(=O)[C@H](CCCNC(=N)N)NC(=O)[C@H](CCCNC(=N)N)NC(=O)[C@H](CO)NC(=O)[C@H](CCC(=O)O)NC(=O)[C@H](CC(C)C)NC(=O)[C@H](Cc1ccc(O)cc1)NC(=O)[C@H](CCCCN)NC(=O)[C@H](CO)NC(=O)[C@H](Cc1ccc(O)cc1)NC(=O)[C@H](CC(=O)O)NC(=O)[C@H](CO)NC(=O)[C@@H](NC(=O)[C@H](Cc1ccccc1)NC(=O)[C@@H](NC(=O)CNC(=O)[C@H](CCC(N)=O)NC(=O)[C@H](CO)NC(=O)[C@@H](N)Cc1c[nH]cn1)[C@@H](C)O)[C@@H](C)O)C(C)C)C(=O)N[C@@H](Cc1c[nH]c2ccccc12)C(=O)N[C@@H](CC(C)C)C(=O)N[C@@H](CC(C)C)C(=O)N[C@@H](CC(N)=O)C(=O)N[C@H](C(=O)O)[C@@H](C)O)C(=O)O)C(=O)O)C(=O)O)C(=O)O` [Example 17, N^ε24-[(4S)-4-[[(4S)-4-[[(4S)-4-[[(4S)-4-acetamido-4-carboxybutanoyl]amino]-4-carboxybutanoyl]amino]-4-carboxybutanoyl]amino]-4-carboxybutanoyl]-[Glu15,Lys24,Leu27]-Glucagon]: 16.5 pM; `CC(=O)N[C@@H](CCC(=O)N[C@@H](CCC(=O)N[C@@H](CCC(=O)N[C@@H](CCC(=O)NCCCC[C@H](NC(=O)[C@@H](NC(=O)[C@H](Cc1ccccc1)NC(=O)[C@H](CC(=O)O)NC(=O)[C@H](CCC(N)=O)NC(=O)[C@H](C)NC(=O)[C@H](CCCNC(=N)N)NC(=O)[C@H](CCCNC(=N)N)NC(=O)[C@H](CC(C)C)NC(=O)[C@H](CC(=O)O)NC(=O)[C@H](CC(C)C)NC(=O)[C@H](Cc1ccc(O)cc1)NC(=O)[C@H](CCCNC(=N)N)NC(=O)[C@H](CO)NC(=O)[C@H](Cc1ccc(O)cc1)NC(=O)[C@H](CC(=O)O)NC(=O)[C@H](CO)NC(=O)[C@@H](NC(=O)[C@H](Cc1ccccc1)NC(=O)[C@@H](NC(=O)CNC(=O)[C@H](CCC(N)=O)NC(=O)[C@H](CO)NC(=O)[C@@H](N)Cc1c[nH]cn1)[C@@H](C)O)[C@@H](C)O)C(C)C)C(=O)N[C@@H](Cc1c[nH]c2ccccc12)C(=O)N[C@@H](CC(C)C)C(=O)N[C@@H](CC(C)C)C(=O)N[C@@H](CO)C(=O)N[C@H](C(=O)O)[C@@H](C)O)C(=O)O)C(=O)O)C(=O)O)C(=O)O` [Example 39, N^ε24-[(4S)-4-[[(4S)-4-[[(4S)-4-[[(4S)-4-acetamido-4-carboxybutanoyl]amino]-4-carboxybutanoyl]amino]-4-carboxybutanoyl]amino]-4-carboxybutanoyl]-[Arg12,Leu16,Lys24,Leu27,Ser28]-Glucagon] (H-HSQGTFTSDYSRYLDLRRAQDFVK([γGlu-γGlu-γGlu-γGlu-Ac])WLLST-OH): 3 pM; `CC(=O)N[C@@H](CCC(=O)N[C@@H](CCC(=O)N[C@@H](CCC(=O)N[C@@H](CCC(=O)NCCCC[C@H](NC(=O)[C@@H](NC(=O)[C@H](Cc1ccccc1)NC(=O)[C@H](CC(=O)O)NC(=O)[C@H](CCC(N)=O)NC(=O)[C@H](C)NC(=O)[C@H](CCCNC(=N)N)NC(=O)[C@H](CCCNC(=N)N)NC(=O)[C@H](CO)NC(=O)[C@H](CC(=O)O)NC(=O)[C@H](CC(C)C)NC(=O)[C@H](Cc1ccc(O)cc1)NC(=O)[C@H](CCCCN)NC(=O)[C@H](CO)NC(=O)[C@H](Cc1ccc(O)cc1)NC(=O)[C@H](CC(=O)O)NC(=O)[C@H](CO)NC(=O)[C@@H](NC(=O)[C@H](Cc1ccccc1)NC(=O)[C@@H](NC(=O)CNC(=O)[C@H](Cc1c[nH]cn1)NC(=O)[C@H](CO)NC(=O)[C@@H](N)Cc1c[nH]cn1)[C@@H](C)O)[C@@H](C)O)C(C)C)C(=O)N[C@@H](Cc1c[nH]c2ccccc12)C(=O)N[C@@H](CC(C)C)C(=O)N[C@@H](CC(C)C)C(=O)N[C@@H](CO)C(=O)N[C@H](C(=O)O)[C@@H](C)O)C(=O)O)C(=O)O)C(=O)O)C(=O)O` [Example 3]: 10.5 pM.
As for `CC(=O)N[C@@H](CCC(=O)N[C@@H](CCC(=O)N[C@@H](CCC(=O)N[C@@H](CCC(=O)NCCCC[C@H](NC(=O)[C@@H](NC(=O)[C@H](Cc1ccccc1)NC(=O)[C@H](CC(=O)O)NC(=O)[C@H](C)NC(=O)[C@H](C)NC(=O)[C@H](CCCNC(=N)N)NC(=O)[C@H](CCCNC(=N)N)NC(=O)[C@H](CC(C)C)NC(=O)[C@H](CC(=O)O)NC(=O)[C@H](CC(C)C)NC(=O)[C@H](Cc1ccc(O)cc1)NC(=O)[C@H](CCCNC(=N)N)NC(=O)[C@H](CO)NC(=O)[C@H](Cc1ccc(O)cc1)NC(=O)[C@H](CC(=O)O)NC(=O)[C@H](CO)NC(=O)[C@@H](NC(=O)[C@H](Cc1ccccc1)NC(=O)[C@@H](NC(=O)CNC(=O)[C@H](CCC(N)=O)NC(=O)[C@H](CO)NC(=O)[C@@H](N)Cc1c[nH]cn1)[C@@H](C)O)[C@@H](C)O)C(C)C)C(=O)N[C@@H](Cc1c[nH]c2ccccc12)C(=O)N[C@@H](CC(C)C)C(=O)N[C@@H](CC(C)C)C(=O)N[C@@H](CO)C(=O)N[C@H](C(=O)O)[C@@H](C)O)C(=O)O)C(=O)O)C(=O)O)C(=O)O` [Example 56, N^ε24-[(4S)-4-[[(4S)-4-[[(4S)-4-[[(4S)-4-acetamido-4-carboxybutanoyl]amino]-4-carboxybutanoyl]amino]-4-carboxybutanoyl]amino]-4-carboxybutanoyl]-[Arg^12,Leu^16,Ala^20,Lys^24,Leu^27,Ser^28]-Glucagon] (H-HSQGTFTSDYSRYLDLRRAADFVK([γGlu-γGlu-γGlu-γGlu-Ac])WLLST-OH), the figure is 20 pM.
Next, `CC(=O)N[C@@H](CCC(=O)N[C@@H](CCC(=O)N[C@@H](CCC(=O)N[C@@H](CCC(=O)NCCCC[C@H](NC(=O)[C@H](C)NC(=O)[C@H](CCCNC(=N)N)NC(=O)[C@H](CCCNC(=N)N)NC(=O)[C@H](CO)NC(=O)[C@H](CC(=O)O)NC(=O)[C@H](CC(C)C)NC(=O)[C@H](Cc1ccc(O)cc1)NC(=O)[C@H](CCCCN)NC(=O)[C@H](CO)NC(=O)[C@H](Cc1ccc(O)cc1)NC(=O)[C@H](CC(=O)O)NC(=O)[C@H](CO)NC(=O)[C@@H](NC(=O)[C@H](Cc1ccccc1)NC(=O)[C@@H](NC(=O)CNC(=O)[C@H](CCC(N)=O)NC(=O)[C@H](CO)NC(=O)[C@@H](N)Cc1c[nH]cn1)[C@@H](C)O)[C@@H](C)O)C(=O)N[C@@H](CC(=O)O)C(=O)N[C@@H](Cc1ccccc1)C(=O)N[C@H](C(=O)N[C@@H](CCC(N)=O)C(=O)N[C@@H](Cc1c[nH]c2ccccc12)C(=O)N[C@@H](CC(C)C)C(=O)N[C@@H](CC(C)C)C(=O)N[C@@H](CO)C(=O)N[C@H](C(=O)O)[C@@H](C)O)C(C)C)C(=O)O)C(=O)O)C(=O)O)C(=O)O` [Example 54, N^ε20-[(4S)-4-[[(4S)-4-[[(4S)-4-[[(4S)-4-acetamido-4-carboxybutanoyl]amino]-4-carboxybutanoyl]amino]-4-carboxybutanoyl]amino]-4-carboxybutanoyl]-[Lys^20,Leu^27,Ser^28]-Glucagon]: 18 pM.

The record behind these values is patent publication US20140031278A1, “Novel Glucagon Analogues” (NOVO NORDISK A/S, priority 2011, published 2014).
